Publication PMC3231940, “Disposition, metabolism and mass balance of [^14C]apremilast following oral administration” (Xenobiotica; the Fate of Foreign Compounds in Biological …, 2011)
Values joined by “and” are separate entries in the source; they are usually repeats but may differ in a detail not shown here. Equal values may be shown once.

What was measured:
[1] = Metabolite profiling by HPLC radiochromatography in plasma, urine and faeces; format: in vivo, human; parameters: key to Plasma (% AUC relative to TRA); share of circulating radioactivity / % of dose excreted, urine: ND: not detected; D: detected by MS, but at concentrations too low to accurately quantify by radiochromatography; settings: for Plasma (% AUC relative to TRA); share of circulating radioactivity: AUC0-t (unchanged drug or metabolite)/AUC0-48 (TRA) * 100%; for % of dose excreted, faeces: faeces collected up to 96-h post-dose; for % of dose excreted, urine: urine collected up to 48-h post-dose; for Share of the excreted radioactivity / excreted dose: urine plus faeces; for Concentration in circulation relative to apremilast / half-life / Tmax: plasma; for half-life / Tmax: human; for half-life / Tmax / Plasma AUC0-t / Plasma AUC0-∞: radiochromatography; for half-life / Tmax / Plasma Cmax / Plasma AUC0-t / Plasma AUC0-∞: single oral 20-mg dose; for half-life / Plasma Cmax / Plasma AUC0-t / Plasma AUC0-∞: mean ± SD; for half-life: read-out: Plasma t½ (converted); for Tmax: male, median and range; for Plasma Cmax: plasma radioactivity concentrations and radiochromatography
Experimental: Individual plasma samples collected from all subjects at 0.5, 1, 2.5, 8, 24, 36 and 48 h post-dose were analysed for metabolite profiling. A pooled sample (equal volume from 0.5,1,2.5,8 and 24 h) from subject 1 was also used for metabolite profiling. Three volumes of acetonitrile were added to each sample, followed by mixing and centrifu-gation. The supernatant was removed and the pellet was washed twice with acetonitrile. The combined superna-tants were evaporated to dryness under a stream of nitrogen. The residues were re-suspended in acetonitrile: 1% formic acid in water (1:1), assayed for extraction recovery and analysed for metabolite profiling.
For each subject, urine samples were pooled using an equal percentage by volume of the 0-4, 4-8, 8-12 and 12-24-h samples. The 24-48-h urine sample from each subject and a pool of the 0-168-h urine samples from subject 1 were also analysed for metabolite profiling. Samples were mixed and centrifuged prior to the supernatants being transferred to fresh tubes for metabolite profiling analysis.
Faecal homogenates for metabolite profiling were pooled using an equal percentage by weight to generate two pools (0-48 h and 48-96 h) for each subject. An additional pool (0-168 h) was prepared using the samples collected from subject 1. An aliquot (approximately 6 g) of each pool was extracted with three volumes of acetonitrile; samples were mixed and centrifuged. The supernatant was removed and the pellets were extracted twice with an additional 12 mL of acetonitrile each time. The combined supernatants were evaporated to dryness under a stream of nitrogen and the residue was re-suspended in a small volume (approximately 400 μL) of acetonitrile: 1% formic acid in water (1:1). Samples were assayed for extraction recovery prior to metabolite profiling.
HPLC analysis for metabolite profiling was performed using a Shimadzu LC-10ADVP (Shimadzu Corp., Columbia, MD) or a Waters 2695 Alliance Separation Module (Waters Corp., Milford, MA) with the autosampler set to an ambient temperature of approximately 22°C. ASPD-10A VPUV-Vis Detector or a Waters 996 Photodiode array detector set to 254 nm was used to detect UV absorbance. [^14C]Apremilast and metabolites were separated using a Phenomenex Luna C 18(2) column (150 × 4.6 mm, 3 μm; Phenomenex, Torrance, CA) equipped with a RP-18 guard column (15×3.2 mm, 7 μm) or using an ACE 3 C18 column (150 × 4.6 mm, 3 μm; Advanced Chromatography Technologies, Aberdeen, Scotland) equipped with an ACE 3 guard column (10×3mm, 3 μm). The mobile phases used were 0.4% formic acid in water; pH 3.2 with ammonium hydroxide (mobile phase A) and acetonitrile (mobile phase B). The column temperature was 30°C and the flow rate was 0.7mL/min. The linear gradient was delivered as follows: 0-5 min to 100% A; 5-20 min to 85% A; 20-30 min hold at 85% A; 30-50 min to 65% A; 50-60 min to 60% A; 60-70 min to 50% A; 70-75 min to 0% A; hold at 0% A until 80 min; return to initial conditions over 2 min.
Radioactivity profiles for excreta were determined by radiochromatography using liquid chromatography-accurate radioisotope counting stop-flow system (LC-ARC; AIM Research Company, Wilmington, DE). Radioactivity was detected using a β-Ram Radioflow detector (IN/US Systems, Brandon, FL) equipped with a 1300-μL liquid cell. Liquid scintillation cocktail and column eluate were mixed at a ratio of 2.5:1. Radioactive peaks were quantified using LC-ARC data handling software. Plasma radioactivity profiles were determined by collecting the column eluate into 96-well Deepwell LumaPlates at a rate of 0.25 min/fraction. The plates were dried and the radioactivity in each well determined using a PerkinElmer TopCount NXT Microplate Scintillation Counter. HPLC radiochromatograms were reconstructed using LC-ARC data handling software.
Pharmacokinetic data were generated by non-compartmental analysis of plasma or whole blood versus time profiles using WinNonlin (version 4.1, Enterprise Edition). […]

[2] = test system: PDE4 enzyme isolated from U937 human monocytic cells; assay: PDE4 inhibition, cAMP hydrolysis assay; format: biochemical; settings: for IC50: PDE4 from U937 cells, cAMP hydrolysis; for PDE4 and TNF-α inhibition activity compared with apremilast: both assays, in words
Experimental: (§1) PDE4 enzyme was isolated from U937 human monocytic cells and used for testing inhibition in a cAMP hydrolysis assay as previously described ([Schafer et al. 2010]). For the TNF-α production assay, human peripheral blood mono-nuclear cells (PBMC) were isolated from buffy coat of normal donor blood units (Blood Center of New Jersey, East Orange, NJ) by density centrifugation over Ficoll Hypaque (Pharmacia, Piscataway, NJ). Cells were cultured in RPMI 1640 (Life Technologies, Grand Island, NY) supplemented with 5% AB^+ human serum (Gemini Bio-products, Woodland, CA), 2-mM L-glutamine, 100-U/mL penicillin and 100-μg/mL streptomycin (Life Technologies). PBMC (2×10^5 cells) were plated in 96-well flat-bottom Costar tissue culture plates (Corning, NY) in duplicate. Cells were stimulated with lipopolysaccharides (LPS) (from Salmonella abortus equi; Sigma cat.no. L-1887, St.Louis, MO) at a final concentration of 1 ng/mL in the absence or presence of compounds. The compounds were dissolved in DMSO (Sigma) and subsequent dilutions were done in culture medium immediately before use. The compounds were added to cells 1 h before LPS stimulation. The cells were incubated for 16-18 h at 37°C in 5% CO2, and super-natants were then collected, diluted with culture medium and assayed for TNF-α levels by enzyme-linked immunosorbent assay (ThermoFisher, Rockford, IL). Fifty percent inhibitory concentrations (IC50) for the PDE4 enzymatic and TNF-α assay were calculated by non-linear regression analysis using Prism 5.1 (GraphPad Software). Regression curves were sigmoidal dose response curves with maximum and minimum constrained to 100% and 0%, respectively.

[3] = test system: TNF-α production by human peripheral blood mononuclear cells; assay: TNF-α production assay in LPS-stimulated PBMC; format: cell-based; settings: LPS 1 ng/mL, 16-18 h, ELISA
Experimental: as §1

SMILES | Plasma (% AUC relative to TRA); share of circulating radioactivity [1] | % of dose excreted, faeces [1] | % of dose excreted, urine [1] | IC50 [2] [µM] | IC50 [3] [µM] | Share of the excreted radioactivity / excreted dose [1] [%] | Concentration in circulation relative to apremilast [1] [%] | PDE4 and TNF-α inhibition activity compared with apremilast [2] | Plasma (% AUC relative to TRA); share of circulating radioactivity ([1]; listed as O-desmethyl apremilast glucuronide) [%] | half-life [1] [h] | Tmax [1] [h] | Plasma Cmax [1] [ngEq/mL] | Plasma AUC0-t [1] [ngEq*h/mL] | Plasma AUC0-∞ [1] [ngEq*h/mL]
CCOc1cc([C@@H](CS(C)(=O)=O)NC(=O)c2cccc(NC(C)=O)c2C(=O)O)ccc1OC [M1/M2] | D | 0.5 % of dose | 0.9 % of dose | 120 | 77 | – | – | – | – | – | – | – | – | –
CCOc1cc([C@@H](CS(C)(=O)=O)N2C(=O)c3cccc(NC(C)=O)c3C2=O)ccc1O [Metabolite M3, O-desmethyl apremilast] | D | 5 % of dose and 4.6 % of dose | D | 8.3 | 5.6 | > 4 | – | – | – | – | – | – | – | –
COc1ccc([C@@H](CS(C)(=O)=O)N2C(=O)c3cccc(NC(C)=O)c3C2=O)cc1O [Metabolite M5, O-desethyl apremilast] | – | – | – | 44 | 4.9 | – | – | – | – | – | – | – | – | –
CCOc1cc([C@@H](CS(C)(=O)=O)N2C(=O)c3cccc(N)c3C2=O)ccc1OC [Metabolite M7, N-deacetyl apremilast] | D | 0.1 % of dose | D | 0.16 | 0.13 | – | < 2 | IC50 values similar to those of apremilast | – | – | – | – | – | –
CCOc1cc([C@@H](CS(C)(=O)=O)N2C(=O)c3cccc(NC(C)=O)c3C2=O)ccc1O[C@@H]1O[C@H](C(=O)O)[C@@H](O)[C@H](O)[C@H]1O [Metabolite M12, O-desmethyl apremilast glucuronide] | 38.7% | – | 34 % of dose and 33.7 % of dose | > 100 | > 10 | 34 | – | – | 39 | 15.8 ± 3.9 | 2.5 | 111±36 | 2124±331 | 2446±416
CCOc1cc([C@@H](CS(C)(=O)=O)N2C(=O)c3cccc(N)c3C2=O)ccc1OC1OC(C(=O)O)C(O)C(O)C1O (stereo partly drawn) [Metabolite M14, O-desmethyl, N-deacetyl apremilast glucuronide] | 4.9% | – | 4.0 % of dose | > 80 | > 10 | – | – | – | – | – | 2.5 | 9.4±4.3 | 269±146 | –
CCOc1cc([C@@H](CS(C)(=O)=O)N2C(=O)c3cccc(NC(=O)COC4OC(C(=O)O)C(O)C(O)C4O)c3C2=O)ccc1OC (stereo partly drawn) [Metabolite M16] | 6.6% | – | 0.6 % of dose | 6.5 | > 10 | – | – | – | – | 11 ± 2.4 | 5.3 | 27.6±26.0 | 363 ±54 | 389±91
CCOc1cc([C@@H](CS(C)(=O)=O)N2C(=O)c3cccc(NC(=O)CO)c3C2=O)ccc1OC [Metabolite M17] | D | 0.9 % of dose | 1.2 % of dose | 0.094 | 0.021 | – | < 2 | IC50 values similar to those of apremilast | – | – | – | – | – | –
